From patent US8211890B2, “5-amino-2-(1-hydroxy-ethyl)-tetrahydropyran derivatives” (Actelion Pharmaceuticals, priority 2008, dated 2012)
In brackets after ≈: the same amount, converted by molar mass.

molecular target: hERG K+ channel (Homo sapiens, UniProt Q12809); assay: In vitro blocking of hERG K+ channels (QPatch automated patch-clamp, CHO-K1 cells); format: cell-based; details: pH 7.4, at 10 μM, CHOhERG cells, 4 minutes of stimulation, average block on two cells
Protocol: hERG K^+ channels have been cloned from human heart and recombinant channels are stably expressed in CHO-K1 cells (CHOhERG). These cells have been purchased from bSys GmbH (CH-4052 Basel, Switzerland) and are grown in 150 mL culture flasks at 37° C. in 5% CO2. When the cells are ˜100% confluent, they are detached with 0.25% trypsin-EDTA solution and placed in the cell preparation unit of a QPatch automated patch-clamp robot (Sophion Bioscience A/S, 2750 Ballerup, Denmark). Currents through the hERG K^+ channels (IKhERG) are elicited using the following buffer solutions and voltage protocol: • extracellular solution (in mM): [NaCl]=150; [KCl]=4; [CaCl2]=1.2; [MgCl2]=1; [HEPES]=10; pH adjusted to 7.4 with NaOH; • intracellular solution (in mM): [KCl]=140; [NaCl]=10; [MgCl2]=1; [HEPES]=10; [EGTA]=5; [Mg-ATP]=5; […] After the cells have stabilized for a few minutes and the currents are steady, the amplitude of IKhERG is recorded under control conditions. Thereafter, the QPatch robot applies the test compound to the cell at the test concentration and, after 4 minutes of stimulation, the amplitude of IKhERG is recorded under test conditions. The ratio of the two amplitudes is used to define a fractional block and the average block on two cells is used to provide the effect of a given concentration (e.g. 10 μM). If, for a given test compound, a sufficient number of concentrations were tested, an apparent IC50 for inhibition of IKhERG is calculated.

Chain of hERG K+ channel (Q12809 whole entry): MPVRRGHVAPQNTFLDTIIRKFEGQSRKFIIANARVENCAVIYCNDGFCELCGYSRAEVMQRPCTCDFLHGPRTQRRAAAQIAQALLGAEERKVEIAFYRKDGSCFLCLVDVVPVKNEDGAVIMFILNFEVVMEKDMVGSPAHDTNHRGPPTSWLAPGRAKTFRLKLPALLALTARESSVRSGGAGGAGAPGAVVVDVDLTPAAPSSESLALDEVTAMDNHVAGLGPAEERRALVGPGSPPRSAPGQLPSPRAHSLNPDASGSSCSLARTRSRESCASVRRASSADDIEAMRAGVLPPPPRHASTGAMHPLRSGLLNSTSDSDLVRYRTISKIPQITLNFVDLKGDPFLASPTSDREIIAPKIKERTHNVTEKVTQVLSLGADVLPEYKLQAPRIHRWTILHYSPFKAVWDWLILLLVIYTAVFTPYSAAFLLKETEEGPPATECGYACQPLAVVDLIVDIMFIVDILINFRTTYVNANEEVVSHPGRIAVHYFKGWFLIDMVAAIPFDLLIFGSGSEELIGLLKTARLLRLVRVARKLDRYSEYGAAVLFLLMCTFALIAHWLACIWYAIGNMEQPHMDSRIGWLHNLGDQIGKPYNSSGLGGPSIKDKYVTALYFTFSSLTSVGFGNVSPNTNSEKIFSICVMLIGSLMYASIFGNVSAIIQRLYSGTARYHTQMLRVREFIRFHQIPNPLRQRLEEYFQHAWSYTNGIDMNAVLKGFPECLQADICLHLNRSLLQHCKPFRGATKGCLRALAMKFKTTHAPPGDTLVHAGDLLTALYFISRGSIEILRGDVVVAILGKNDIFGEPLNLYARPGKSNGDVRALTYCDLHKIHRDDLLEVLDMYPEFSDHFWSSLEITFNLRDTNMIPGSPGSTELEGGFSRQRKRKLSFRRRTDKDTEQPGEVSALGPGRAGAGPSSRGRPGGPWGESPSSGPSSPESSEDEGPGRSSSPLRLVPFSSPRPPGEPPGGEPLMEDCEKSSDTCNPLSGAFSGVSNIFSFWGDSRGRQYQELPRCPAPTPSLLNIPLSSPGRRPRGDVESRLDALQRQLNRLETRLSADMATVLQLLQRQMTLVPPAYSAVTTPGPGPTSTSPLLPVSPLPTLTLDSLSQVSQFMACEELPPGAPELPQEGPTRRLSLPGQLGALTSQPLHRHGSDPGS

Compound	inhibition at 4 min, 10 µM [%]
COc1ccc2ncc(F)c(C[C@H](O)[C@@H]3CC[C@@H](NCc4cc5c(cn4)OCCO5)CO3)c2n1 [Example 3, (1S)-1-{(2S,5R)-5-[(2,3-dihydro-[1,4]dioxino[2,3-c]pyridin-7-ylmethyl)-amino]-tetrahydro-pyran-2-yl}-2-(3-fluoro-6-methoxy-[1,5]naphthyridin-4-yl)-ethanol]	29
COc1ccc2nccc(C[C@H](O)[C@@H]3CC[C@@H](NCc4cc5c(cn4)OCCO5)CO3)c2n1 [Example 1, (1S)-1-{(2S,5R)-5-[(2,3-dihydro-[1,4]dioxino[2,3-c]pyridin-7-ylmethyl)-amino]tetrahydro-pyran-2-yl}-2-(6-methoxy-[1,5]naphthyridin-4-yl)-ethanol]	26

system: S. aureus A798; assay: Bacterial growth minimal inhibitory concentrations (microdilution, cation-adjusted Mueller-Hinton Broth); format: cell-based; details: Staphylococcus aureus, microdilution
Protocol: Minimal inhibitory concentrations (MICs; mg/l) were determined in cation-adjusted Mueller-Hinton Broth by a microdilution method following the description given in “Methods for Dilution Antimicrobial Susceptibility Tests for Bacteria that Grow Aerobically”, Approved standard, 7th ed., Clinical and Laboratory Standards Institute (CLSI) Document M7-A7, Wayne, Pa., USA, 2006.

Compound	MIC [µg/mL]
[2H]C(N[C@@H]1CC[C@@H]([C@@H](O)Cc2c(F)cnc3ccc(OC)nc23)OC1)c1cc2c(nn1)OCCS2 (stereo partly drawn) [Example 23, (S)-1-{(2S,5R)-5-[(6,7-dihydro-8-oxa-5-thia-1,2-diaza-naphthalen-3-ylmethyl-d1)-amino]-tetrahydro-pyran-2-yl}-2-(3-fluoro-6-methoxy-[1,5]naphthyridin-4-yl)-ethanol]	≤ 0.031
COc1ccc2nccc(C[C@H](O)[C@@H]3CC[C@@H](NCc4cc5c(nn4)OCCO5)CO3)c2n1 [Example 2, (1S)-1-{(2S,5R)-5-[(6,7-dihydro-[1,4]dioxino[2,3-c]pyridazin-3-ylmethyl)-amino]-tetrahydro-pyran-2-yl}-2-(6-methoxy-[1,5]naphthyridin-4-yl)-ethanol]	0.25 (≈ 0.551 µM)
COc1cnc2ccc(F)c(C[C@H](O)[C@@H]3CC[C@@H](NCc4cc5c(nn4)OCCS5)CO3)c2n1 [Example 15, (1S)-1-{(2S,5R)-5-[(6,7-dihydro-8-oxa-5-thia-1,2-diaza-naphthalen-3-ylmethyl)-amino]-tetrahydro-pyran-2-yl}-2-(6-fluoro-3-methoxy-quinoxalin-5-yl)-ethanol]	≤ 0.031
COc1ccc2ccc(F)c(C[C@H](O)[C@@H]3CC[C@@H](NCc4cc5c(cn4)OCCO5)CO3)c2n1 [Example 5, (1S)-1-{(2S,5R)-5-[(2,3-dihydro-[1,4]dioxino[2,3-c]pyridin-7-ylmethyl)-amino]-tetrahydro-pyran-2-yl}-2-(7-fluoro-2-methoxy-quinolin-8-yl)-ethanol]	≤ 0.031
COc1ccc2ncc(F)c(C[C@H](O)[C@@H]3CC[C@@H](NCc4cc5c(nn4)OCCS5)CO3)c2n1 [Example 11, (1S)-1-{(2S,5R)-5-[(6,7-dihydro-8-oxa-5-thia-1,2-diaza-naphthalen-3-ylmethyl)-amino]-tetrahydro-pyran-2-yl}-2-(3-fluoro-6-methoxy-[1,5]naphthyridin-4-yl)-ethanol]	≤ 0.031
[2H]C([2H])(N[C@@H]1CC[C@@H]([C@@H](O)Cc2c(F)cnc3ccc(OC)nc23)OC1)c1cc2c(cn1)OCCO2 [Example 24, (1S)-1-((2S,5R)-5-(((2,3-dihydro-[1,4]dioxino [2,3-c]pyridin-7-yl)methyl-d2)amino)tetrahydro-2H-pyran-2-yl)-2-(3-fluoro-6-methoxy-1,5-naphthyridin-4-yl)ethanol]	≤ 0.031
[2H]C(c1c(F)cnc2ccc(OC)nc12)[C@H](O)[C@@H]1CC[C@@H](NCc2cc3c(cn2)OCCS3)CO1 (stereo partly drawn) [Example 21, (S)-1-((2S,5R)-5-(((2,3-dihydro-[1,4]oxathiino[2,3-c]pyridin-7-yl)methyl)amino)tetrahydro-2H-pyran-2-yl)-2-(3-fluoro-6-methoxy-1,5-naphthyridin-4-yl)ethanol-2-d1]	≤ 0.031
COc1ccc2ncc(F)c(C[C@H](O)[C@@H]3CC[C@@H](NCc4cc5c(cn4)OCCO5)CO3)c2n1 [Example 3, (1S)-1-{(2S,5R)-5-[(2,3-dihydro-[1,4]dioxino[2,3-c]pyridin-7-ylmethyl)-amino]-tetrahydro-pyran-2-yl}-2-(3-fluoro-6-methoxy-[1,5]naphthyridin-4-yl)-ethanol]	≤ 0.031
COc1ccc2ncc(F)c(C[C@H](O)[C@@H]3CC[C@@H](NCc4cc5c(cn4)OCCS5)CO3)c2n1 [Example 6, (1S)-1-{(2S,5R)-5-[(2,3-dihydro-4-oxa-1-thia-6-aza-naphthalen-7-ylmethyl)-amino]-tetrahydro-pyran-2-yl}-2-(3-fluoro-6-methoxy-[1,5]naphthyridin-4-yl)-ethanol]	≤ 0.031
COc1ccc2nccc(C[C@H](O)[C@@H]3CC[C@@H](NCc4cc5c(cn4)OCCO5)CO3)c2n1 [Example 1, (1S)-1-{(2S,5R)-5-[(2,3-dihydro-[1,4]dioxino[2,3-c]pyridin-7-ylmethyl)-amino]tetrahydro-pyran-2-yl}-2-(6-methoxy-[1,5]naphthyridin-4-yl)-ethanol]	≤ 0.031
COc1ccc2ccc(F)c(C[C@H](O)[C@@H]3CC[C@@H](NCc4cc5c(cn4)OCCS5)CO3)c2n1 [Example 7, (1S)-1-{(2S,5R)-5-[(2,3-dihydro-4-oxa-1-thia-6-aza-naphthalen-7-ylmethyl)-amino]-tetrahydro-pyran-2-yl}-2-(7-fluoro-2-methoxy-quinolin-8-yl)-ethanol]	≤ 0.031
COc1ccc2ncc(F)c(C[C@H](O)[C@@H]3CC[C@@H](NCc4cc5c(cn4)OCS5)CO3)c2n1 [Example 8, (1S)-2-(3-fluoro-6-methoxy-[1,5]naphthyridin-4-yl)-1-{(2S,5R)-5-[(3-oxa-1-thia-5-aza-indan-6-ylmethyl)-amino]tetrahydro-pyran-2-yl}-ethanol]	≤ 0.031
COc1cnc2ccc(F)c(C[C@H](O)[C@@H]3CC[C@@H](NCc4cc5c(cn4)OCCS5)CO3)c2n1 [Example 14, (1S)-1-{(2S,5R)-5-[(2,3-dihydro-4-oxa-1-thia-6-aza-naphthalen-7-ylmethyl)-amino]-tetrahydro-pyran-2-yl}-2-(6-fluoro-3-methoxy-quinoxalin-5-yl)-ethanol]	≤ 0.031
COc1ccc2ncc(F)c(C[C@H](O)[C@@H]3CC[C@@H](NCc4cc5c(cn4)OCCC5)CO3)c2n1 [Example 10, (1S)-1-{(2S,5R)-5-[(3,4-dihydro-2H-pyrano[2,3-c]pyridin-6-ylmethyl)-amino]-tetrahydro-pyran-2-yl}-2-(3-fluoro-6-methoxy-[1,5]naphthyridin-4-yl)-ethanol]	≤ 0.031
[2H]C(c1c(F)cnc2ccc(OC)nc12)[C@H](O)[C@@H]1CC[C@@H](NCc2cc3c(cn2)OCCO3)CO1 (stereo partly drawn) [Example 20, (1S)-1-((2S,5R)-5-(((2,3-dihydro-[1,4]dioxino-[2,3-c]pyridin-7-yl)methyl)amino)tetrahydro-2H-pyran-2-yl)-2-(3-fluoro-6-methoxy-1,5-naphthyridin-4-yl)ethanol-2-d1]	≤ 0.031
[2H][C@](O)(Cc1c(F)cnc2ccc(OC)nc12)[C@@H]1CC[C@@H](NCc2cc3c(cn2)OCCO3)CO1 (single isomer, unassigned) [Example 18]	≤ 0.031
[2H]C(N[C@@H]1CC[C@@H]([C@@H](O)Cc2c(F)cnc3ccc(OC)nc23)OC1)c1cc2c(cn1)OCCS2 (stereo partly drawn) [Example 19, (S)-1-((2S,5R)-5-(((2,3-dihydro-[1,4]oxathiino[2,3-c]pyridin-7-yl)methyl-d1)amino)tetrahydro-2H-pyran-2-yl)-2-(3-fluoro-6-methoxy-1,5-naphthyridin-4-yl)ethanol]	≤ 0.031
COc1cnc2ccc(F)c(C[C@H](O)[C@@H]3CC[C@@H](NCc4cc5c(cn4)OCCO5)CO3)c2n1 [Example 12, (1S)-1-{(2S,5R)-5-[(2,3-dihydro-[1,4]dioxino[2,3-c]pyridin-7-ylmethyl)-amino]-tetrahydro-pyran-2-yl}-2-(6-fluoro-3-methoxy-quinoxalin-5-yl)-ethanol]	≤ 0.031
COc1cnc2ccc(F)c(C[C@H](O)[C@@H]3CC[C@@H](NCc4cc5c(nn4)OCCO5)CO3)c2n1 [Example 13, (1S)-1-{(2S,5R)-5-[(6,7-dihydro-[1,4]dioxino[2,3-c]pyridazin-3-ylmethyl)-amino]tetrahydro-pyran-2-yl}-2-(6-fluoro-3-methoxy-quinoxalin-5-yl)-ethanol]	≤ 0.031
[2H]C(N[C@@H]1CC[C@@H]([C@@H](O)Cc2c(F)cnc3ccc(OC)nc23)OC1)c1cc2c(cn1)OCCO2 (stereo partly drawn) [Example 16, (1S)-1-((2S,5R)-5-(((2,3-dihydro-[1,4]dioxino[2,3-c]pyridin-7-yl)methyl-d1)amino)tetrahydro-2H-pyran-2-yl)-2-(3-fluoro-6-methoxy-1,5-naphthyridin-4-yl)ethanol]	≤ 0.031
COc1ccc2ccc(F)c(C[C@H](O)[C@@H]3CC[C@@H](NCc4cc5c(cn4)OCS5)CO3)c2n1 [Example 9, (1S)-2-(7-fluoro-2-methoxy-quinolin-8-yl)-1-{(2S,5R)-5-[(3-oxa-1-thia-5-aza-indan-6-ylmethyl)-amino]-tetrahydro-pyran-2-yl}-ethanol]	≤ 0.031

same assay, conditions: comparison table of compounds of formula ICOMP

Compound	MIC for S. aureus A798
COc1ccc2ncc(F)c(C[C@H](O)[C@@H]3CC[C@@H](NCc4cc5c(cn4)OCCO5)CO3)c2n1 [Example 3, (1S)-1-{(2S,5R)-5-[(2,3-dihydro-[1,4]dioxino[2,3-c]pyridin-7-ylmethyl)-amino]-tetrahydro-pyran-2-yl}-2-(3-fluoro-6-methoxy-[1,5]naphthyridin-4-yl)-ethanol]	≦0.031 mg/l
COc1ccc2nccc(C[C@H](O)[C@@H]3CC[C@@H](NCc4cc5c(cn4)OCCO5)CO3)c2n1 [Example 1, (1S)-1-{(2S,5R)-5-[(2,3-dihydro-[1,4]dioxino[2,3-c]pyridin-7-ylmethyl)-amino]tetrahydro-pyran-2-yl}-2-(6-methoxy-[1,5]naphthyridin-4-yl)-ethanol]	≦0.031 mg/l

same assay, conditions: microdilution

Compound	MIC for S. aureus A798
(S)-((1S,5R)-5-(((2,3-dihydro-[1,4]oxathiino[2,3-c]pyridin-7-yl)methyl)amino)tetrahydro-2H-pyran-2-yl)-2-(3-fluoro-6-methoxy-1,5-naphthyridin-4-yl)ethanol-1-d1 [Example 22]	≦0.031 mg/l
(1S)-1-((2S,5R)-5-(((2,3-dihydro-[1,4]dioxino-2,2,3,3-d4-[2,3-c]pyridin-7-yl)methyl)amino)tetrahydro-2H-pyran-2-yl)-2-(3-fluoro-6-methoxy-1,5-naphthyridin-4-yl)ethanol [Example 17]	≦0.031 mg/l
